Several values for one entry are separate records, joined by “and”; a condition that tells them apart may be missing. Identical values can stand only once.

Holding throughout (assay type): physicochemical
Data set [1] is described as follows: Qualitative solubility in representative organic solvents. The following applies: for solubility in CH2Cl2: CH2Cl2, qualitative; for solubility in dimethylformamide / solubility in ethanol / solubility in hexanes / solubility in toluene: qualitative.
Data set [2] is described as follows: Chemical stability (air, chromatography). Conditions: Biobeads S-X3, CH2Cl2.
Data set [3] is described as follows: Salt concentration in polar and nonpolar solvents (Table 2). The following applies: for solubility in hexanes and mineral oil: mineral oil (Nujol).
Data set [4] in a line: Photofading of phthalocyanines on irradiation with tungsten lamp light. The following applies: toluene ~0.01 mM, 300 W tungsten lamp, 30 cm, room temperature. How it is done:
Linolenate Ester of SiPc(OH)2, SiPc(OC(O)(CH2)6(CH2CH═CH)3 CH2CH3]2. A solution of the linolenate ester of SiPc(OH)2 in toluene (˜0.01 mM) in a capped quartz cuvette was irradiated at room temperature with light from a tungsten lamp (300 W) in a projector (Kodak […] III E, Kodak, Japan) with a lamp-to-cuvette separation of 30 cm. The UV-vis absorption of the solution at 684 nm was taken periodically and the percent ester remaining was calculated.
The compounds below Table 7 show phthalocyanines with (a) polyunsaturated ester ligands and (b) with polyunsaturated anions

Data set [5] in a line: Quantitative solubility (concentration) in H2O and aqueous dispersants. An excerpt:
Disperstants are agents added to an aqueous solution to prevent clumping, and include a number of surfactant and surfactant-like molecules. […]

As for “[HOSiPcOSi(CH3)2(CH2)3NH(CH3)2]^+[CH3(OCH2CH2)˜45OC(O)(CH2)2C(O)O]^− [Compound 24]”, in data set [1], the “solubility in CH2Cl2” value was “soluble”, the solubility in dimethylformamide entry is “soluble”, the solubility in ethanol result is “soluble” and the solubility in hexanes entry is recorded as “insoluble”. The solubility in toluene entry in data set [1] was “moderately soluble”.
As to “[HOSiPcOSi(CH3)2(CH2)3NH(CH3)2]^+[(HOC(O)(CH2)10Si(CH3)2)(Si(CH3)2O)˜120(Si(CH3)2(CH2)10C(O)O]^− [Compound 16]”, in data set [1], the “solubility in CH2Cl2” value is “soluble”, the solubility in dimethylformamide entry was “soluble”, the solubility in ethanol result is listed as “soluble” and the solubility in hexanes result is reported as “insoluble”. Also, the solubility in toluene result in data set [1] is recorded as “moderately soluble”. Besides, the stability on chromatography entry in data set [2] is “decomposed to Pc 4 and the carboxysiloxane”.
“[HOSiPcOSi(CH3)2(CH2)3NH(CH2)2]^+[C33H53O5]^− [Compound 11]”: in data set [1], the “solubility in CH2Cl2” value is “soluble”, the solubility in dimethylformamide entry is given as “soluble”, the solubility in ethanol result was “soluble” and the solubility in hexanes result was “slightly soluble”. In addition, in data set [1], the solubility in toluene entry is on record as “moderately soluble”. In data set [3], the “salt concentration, […] aqueous Tween 80” value was found to be 0.004 mM; the “salt concentration, hexanes” value came to 0.065 mM; the “salt concentration, mineral oil” value came out at 0.029 mM. Besides, in data set [3] (in words), the “solubility in aqueous solution” value is reported as “only slight solubility”; the “solubility in hexanes and mineral oil” value is on record as “significant solubility”. The solubility in petrolatum entry in data set [3] (petrolatum (Vaseline), in words) is “significant solubility”.
On to “SiPc(OC(O)(CH2)6(CH2CH═CH)2(CH2)4CH3]2 [linoleic ester]”, for which the “% left” value in data set [4] (4 hrs irradiation) is reported as 95%; in data set [4] (12 hrs irradiation), 95%; in data set [4] (20 hrs irradiation), 94%.
Take “[HOSiPcOSi(CH3)2(CH2)3NH(CH2)2]^+[C27H29N2O7S2]^− [Compound 14]”: in data set [1], the “solubility in CH2Cl2” value is “soluble”, the solubility in dimethylformamide entry is recorded as “soluble”, the solubility in ethanol result is given as “soluble” and the solubility in hexanes result is on record as “insoluble”. The solubility in toluene entry in data set [1] is “moderately soluble”.
Regarding “H(OCH2CH2)˜76OOC(CH2)2COOH [Compound 21]”, in data set [1], the “solubility in CH2Cl2” value was “soluble”, the solubility in dimethylformamide result is given as “soluble”, the solubility in ethanol result is on record as “soluble” and the solubility in hexanes entry is given as “insoluble”. Besides, in data set [1], the solubility in toluene result is given as “moderately soluble”.
In the case of `CN(C)CCC[Si](C)(C)O[Si]1(O)n2c3c4ccccc4c2N=C2N=C(N=c4c5ccccc5c(n41)=NC1=NC(=N3)c3ccccc31)c1ccccc12.CS(=O)(=O)O` (stereo not drawn) [Compound 26, [HOSiPcOSi(CH3)2(CH2)3NH(CH3)2]^+[CH3SO3]^−], in data set [3], the “salt concentration, […] aqueous Tween 80” value is reported as 0.262 mM; the “salt concentration, hexanes” value was 0.002 mM; the “salt concentration, mineral oil” value worked out at 0.002 mM. In addition, in data set [3] (in words), the “solubility in aqueous solution” value is listed as “show solubility”; the “solubility in hexanes and mineral oil” value is “little”.
Turning to “[HOSiPcOSi(CH3)2(CH2)3NH(CH3)2]^+[4-C9H19C6H4-1-(OCH2CH2)˜20O(CH2)3SO3]^− [Compound 18]”, the “solubility in CH2Cl2” value in data set [1] was “soluble”. Further, the solubility in dimethylformamide entry in data set [1] is “soluble”. Besides, the solubility in ethanol result in data set [1] is on record as “soluble”. Moreover, in data set [1], the solubility in hexanes entry is “insoluble”. The solubility in toluene entry in data set [1] is on record as “moderately soluble”. Also, the “salt conc in dilute aqueous Tween 80” value in data set [5] (Tween 80 7.2 mg/mL ([…])) turned out to be 874 µM. In addition, the salt conc is 50 μg/mL and 70 μM in data set [5] (aqueous Dow Corning 193 7.2 mg/mL, listed as Pc 245); 9.3 μg/mL and 13 μM in data set [5] (aqueous PEG methyl ether 350 7.2 mg/mL (21 mM), listed as Pc 245); 0.022 μg/mL and 0.031 μM in data set [5] (aqueous PEG methyl ether 750 7.2 mg/mL (9.6 mM), listed as Pc 245); 1.3 μg/mL and 1.8 μM in data set [5] (aqueous PEG methyl ether 2000 7.2 mg/mL (3.6 mM), listed as Pc 245); 3.4 μg/mL and 4.8 μM in data set [5] (aqueous PEG methyl ether 5000 7.2 mg/mL (1.4 mM), listed as Pc 245); 1418 µM in data set [5] (aqueous potassium poly(ethylene glycol)-4-nonylphenyl-3-sulfopropyl ether 7.2 mg/mL (5.0 mM)). In addition, the salt conc in data set [5] (aqueous potassium poly(ethylene glycol)-4-nonylphenyl-3-sulfopropyl ether 7.2 mg/mL (5.0 mM), listed as Pc 245) is ~1018 μg/mL and ~1418 μM; in data set [5] (aqueous povidone 7.2 mg/mL (0.18 mM), listed as Pc 245), 14 μg/mL and 19 μM.
Turning to “CH3(OCH2CH2)˜45OC(O)(CH2)2C(O)OH [Compound 23]”, in data set [1], the “solubility in CH2Cl2” value is on record as “soluble”, the solubility in dimethylformamide entry is reported as “soluble”, the solubility in ethanol entry is reported as “soluble” and the solubility in hexanes entry is listed as “insoluble”. The solubility in toluene result in data set [1] is given as “moderately soluble”.
For the compound `CCC=CCC=CCC=CCC=CCC=CCC=CCCC(=O)O.CCC=CCC=CCC=CCC=CCC=CCC=CCCC(=O)O.CN(C)CCC[Si](C)(C)O[Si]1(O[Si](C)(C)CCCN(C)C)n2c3c4ccccc4c2N=C2N=C(N=c4c5ccccc5c(n41)=NC1=NC(=N3)c3ccccc31)c1ccccc12` [DHA salt, {SiPc[OSi(CH3)2(CH2)3NH(CH3)2]2}^2+[CH3CH2(CH═CHCH2)6CH2COO^−]2], the “% left” value was found to be 72% in data set [4] (4 hrs irradiation) and 62% in data set [4] (8 hrs irradiation).
As for `CN(C)CCC[Si](C)(C)O[Si]1(O)n2c3c4ccccc4c2N=C2N=C(N=c4c5ccccc5c(n41)=NC1=NC(=N3)c3ccccc31)c1ccccc12.CP(C)(=O)O` (stereo not drawn) [Compound 13, [HOSiPcOSi(CH3)2(CH2)3NH(CH2)2]^+[(CH3)2P(O)O]^−], in data set [1], the “solubility in CH2Cl2” value is “soluble”, the solubility in dimethylformamide result is recorded as “soluble”, the solubility in ethanol entry is listed as “soluble” and the solubility in hexanes result is reported as “insoluble”. The solubility in toluene result in data set [1] is “moderately soluble”.
Turning to “[HOSiPcOSi(CH3)2(CH2)3NH(CH3)2]^+[H(OCH2CH2)˜76O(O)C(CH2)2C(O)O]^− [Compound 22]”, in data set [1], the “solubility in CH2Cl2” value is listed as “soluble”, the solubility in dimethylformamide result was “soluble”, the solubility in ethanol result is given as “soluble” and the solubility in hexanes entry is on record as “insoluble”. For the same compound, the solubility in toluene result in data set [1] was “moderately soluble”.
Take “{SiPc[OSi(CH3)2(CH2)3NH(CH3)2]2}^2+[CH3CH2(CH═CHCH2)3(CH2)6COO^−]2 [linolenic salt]”: the “% left” value came out at 79% in data set [4] (12 hrs irradiation) and 73% in data set [4] (20 hrs irradiation).
On to `CN(C)CCC[Si](C)(C)O[Si]1(O)n2c3c4ccccc4c2N=C2N=C(N=c4c5ccccc5c(n41)=NC1=NC(=N3)c3ccccc31)c1ccccc12.O=C(O)CCC(=O)OCCOCCOCCOCCOCCOCCOCCOCCOCCO` (stereo not drawn) [Compound 20, [HOSiPcOSi(CH3)2(CH2)3NH(CH3)2]^+[H(OCH2CH2)9OC(O)(CH2)2C(O)O]^−], for which, in data set [1], the “solubility in CH2Cl2” value is “soluble”, the solubility in dimethylformamide result was “soluble”, the solubility in ethanol entry was “soluble” and the solubility in hexanes result was “insoluble”. The solubility in toluene entry in data set [1] is given as “moderately soluble”.
For the compound SiPc[OC(O)(CH2)17]2 [stearic ester], in data set [4] (20 hrs irradiation), the “% left” value is listed as 100%.
Consider `CN(C)CCC[Si](C)(C)O[Si]1(O)n2c3c4ccccc4c2N=C2N=C(N=c4c5ccccc5c(n41)=NC1=NC(=N3)c3ccccc31)c1ccccc12` (stereo not drawn) [Pc 4, HOSiPcOSi(CH3)2(CH2)3N(CH3)2, reference compound], for which the “Pc 4 conc” value in data set [5] (H2O, no dispersant) is 0.0 μg/mL and 0.0 μM; in data set [5] (aqueous 1,6-hexanediol 7.2 mg/mL (61 mM)), 7.2 μg/mL and 10 μM; in data set [5] (aqueous Dow Corning 193 7.2 mg/mL), 0.29 μg/mL and 0.40 μM; in data set [5] (aqueous potassium poly(ethylene glycol)-4-nonylphenyl-3-sulfopropyl ether 7.2 mg/mL (5.7 mM)), 4.3 μg/mL and 6.0 μM; in data set [5] (aqueous povidone 7.2 mg/mL (0.18 mM)), 0.09 μg/mL and 0.12 μM.
On to “H(OCH2CH2)˜9OC(O)(CH2)2C(O)OH [Compound 19]”, for which, in data set [1], the “solubility in CH2Cl2” value is “soluble”, the solubility in dimethylformamide entry is “soluble”, the solubility in ethanol result is recorded as “soluble” and the solubility in hexanes entry is on record as “insoluble”. Moreover, the solubility in toluene entry in data set [1] is “moderately soluble”.
Regarding “4-C9H19C6H4-1-(OCH2CH2)˜20O(CH2)3SO3H [Compound 17]”, in data set [1], the “solubility in CH2Cl2” value is on record as “soluble”, the solubility in dimethylformamide result is “soluble”, the solubility in ethanol result is given as “soluble” and the solubility in hexanes entry is recorded as “insoluble”. Besides, the solubility in toluene result in data set [1] is recorded as “moderately soluble”.
As to `CN(C)CCC[Si](C)(C)O[Si]1(O)n2c3c4ccccc4c2N=C2N=C(N=c4c5ccccc5c(n41)=NC1=NC(=N3)c3ccccc31)c1ccccc12.COC(=O)c1ccccc1C(=O)O` (stereo not drawn) [Compound 10, [HOSiPcOSi(CH3)2(CH2)3NH(CH2)2]^+[2-(CH3OC(O))C6H4C(O)O]^−], in data set [1], the “solubility in CH2Cl2” value is given as “soluble”, the solubility in dimethylformamide entry is “soluble”, the solubility in ethanol result was “soluble” and the solubility in hexanes entry is “insoluble”. Also, in data set [1], the solubility in toluene result is reported as “moderately soluble”.

These data come from patent US8440641B2, “Phthalocyanine salt formulations” (Case Western Reserve University, priority 2009, dated 2013).
